Values joined by “and” are separate entries in the source; they are usually repeats but may differ in a detail not shown here. Identical values can stand only once.
Tests used:
[1] = test system: HCT116 Parental; assay: Single agent proliferation assay (CellTiter-Glo, 72 h); format: cell-based, human
Experimental: (§1) Cells were seeded in 96-well plates at the densities and media conditions indicated in Table 11 in McCoy's 5A containing either 10% FBS or 1% charcoal-stripped FBS (CS-FBS), and allowed to adhere overnight prior to addition of compound or vehicle control. Compounds were prepared from DMSO stocks to give the desired final concentrations. The final DMSO concentration was constant at 0.1%. Test compounds were incubated with the cells for 72 h at 37° C., 5% CO2 in a humidified atmosphere. CellTiter-Glo® reagent (Promega, Madison, Wis.) was added according to manufacturer's instructions and luminescence detected using the BMG FLUOstar plate reader (BMG Labtech, Ortenberg, Germany). The average media only background value was deducted and the data analysed using a 4-parameter logistic equation in GraphPad Prism (GraphPad Software, La Jolla, Calif.).

[2] = test system: HCT116 PIK3CA (+/−); assay: as above; format: cell-based, human
Experimental: as §1, with “Compounds were prepared from DMSO stocks to give the desired final concentrations.” left out

[3] = test system: HCT116 human colorectal carcinoma xenograft; assay: HCT116 xenograft tumor growth delay (TGD) study; format: in vivo, mice
Experimental: Female athymic nude mice (Crl:NU(Ncr)-Foxn1^nu, Charles River) were eight weeks old with a body weight (BW) range of 14.6 to 25.7 grams on Day 1 of the study. The animals were fed ad libitum water (reverse osmosis, 1 ppm Cl), and NIH 31 Modified and Irradiated Lab Diet® consisting of 18.0% crude protein, 5.0% crude fat, and 5.0% crude fiber. The mice were housed on irradiated Enrich-O'Cobs™ Laboratory Animal Bedding in static microisolators on a 12-hour light cycle at 20-22° C. (68-72° F.) and 40-60% humidity.
HCT116 human colon carcinoma cells were cultured in RPMI-1640 medium supplemented with 10% fetal bovine serum, 2 mM glutamine, 100 units/mL penicillin G sodium, 100 μg/mL streptomycin sulfate, and 25 μg/mL gentamicin. The tumor cells were grown in tissue culture flasks in a humidified incubator at 37° C., in an atmosphere of 5% CO2 and 95% air.
The HCT116 cells used for implantation were harvested during exponential growth and resuspended in 50% Matrigel (BD Biosciences): 50% phosphate buffered saline at a concentration of 2.5×10^7 cells/mL. On the day of tumor implant, each test mouse was injected subcutaneously in the right flank with 5×10^6 cells (0.2 mL cell suspension), and tumor growth was monitored as the average size approached the target range of 100 to 150 mm^3. Tumors were measured in two dimensions using calipers, and volume was calculated using the formula: Tumor Volume (mm^3)=(w^2×l)/2 where w=width and l=length, in mm, of the tumor. Tumor weight may be estimated with the assumption that 1 mg is equivalent to 1 mm^3 of tumor volume.
Ten days after tumor implantation, designated as Day 1 of the study, the animals were sorted into nine groups (Groups 1-9) each consisting of fifteen mice and one group (Group 10) consisting of ten mice.
BVD-523 doses were prepared by suspending the required amount of BVD-523 powder in 1% carboxymethyl cellulose (CMC) in deionized water (“Vehicle”). A 10 mg/mL BVD-523 stock was prepared, and was used to dose the 100 mg/kg BVD-523 group. Aliquots of the stock were diluted with the vehicle to a concentration of 5.0 mg/mL, which provided a 50 mg/kg BVD-523 dosage in a dosing volume of 10 mL/kg. The BVD-523 doses were stored at 4° C. for up to one week. The 1% CMC vehicle was used to dose the control group.
Paclitaxel (Lot CP2N10007) was purchased as a dry powder from Phyton Biotech, LLC (Fort Worth, Tex.). A paclitaxel stock solution (30 mg/mL) in 50% ethanol: 50% Cremophor EL was prepared and stored at room temperature protected from light during the dosing period. On each day of dosing, an aliquot of the paclitaxel stock was diluted with 5% dextrose in water (D5W) to yield a 3.0 mg/mL paclitaxel dosing solution in a vehicle consisting of 5% ethanol: 5% Cremophor EL: 90% D5W.
On Day 1 of the study, mice were sorted into nine groups (Group 1-9) each consisting of fifteen mice and one group (Group 10) consisting of ten mice, and dosing was initiated according to the treatment plan summarized in Table 4 below. All doses were given by oral gavage (p.o.) except paclitaxel, which was given i.v. For each agent, the dosing volume of 10 mL/kg (0.2 mL per 20 grams of BW) was scaled to the BW of the individual animal. […] For bid dosing, dosing was initiated in the afternoon of Day 1, so that one dose was given on the first day (“first day 1 dose”).
Group 1 received 1% CMC vehicle p.o. bid to end, and served as the control group for calculation of % TGD. Group 10 received paclitaxel i.v. at 30 mg/kg once every other day (qod) for five doses (qod×5), and served as the positive control for the model.
Groups 4 and 5 received 50 and 100 mg/kg BVD-523, respectively, p.o. bid to end.

[4] = Toxicity (body weight, deaths, clinical signs) in the HCT116 xenograft study; format: in vivo, mice; conditions: Group 10: Paclitaxel 30 mg/kg iv qod x 5
Experimental: Animals were weighed daily on Days 1-5, then twice per week until completion of the study. The mice were observed frequently for overt signs of any adverse, TR side effects, and clinical signs were recorded when observed. Individual BW loss was monitored as per protocol, and any animal whose weight exceeded the limits for acceptable BW loss was euthanized. Group mean BW loss also was monitored as per protocol. Dosing was to be suspended in any group that exceeded the limits for acceptable mean BW loss. If mean BW recovered, then dosing was to be resumed in that group, but at a lower dosage or less frequent dosing schedule. Acceptable toxicity for the maximum tolerated dose (MTD) was defined as a group mean BW loss of less than 20% during the study and not more than 10% TR deaths. A death was classified as TR if attributable to treatment side effects as evidenced by clinical signs and/or necropsy, or may also be classified as TR if due to unknown causes during the dosing period or within 14 days of the last dose. A death was classified as NTR if there was no evidence that death was related to treatment side effects. NTR deaths may be further characterized based on cause of death. A death was classified as NTRa if it resulted from an accident or human error. […] A death was classified as NTRu if the cause of death was unknown and there was no available evidence of death related to treatment side effects, metastasis, accident or human error, although death due to treatment side effects cannot be excluded.

[5] = test system: parental HCT116 cells; assay: Combination proliferation assay (Loewe/Bliss); format: cell-based; conditions: Homo sapiens, HCT-116, 2.5% serum, mean of n=4 separate combinations, read-out: IC50 (single agent, derived from combination assay plates)
Experimental: Cells were seeded into triplicate 96-well plates at the densities indicated in Table 11 in McCoy's 5A media containing 2.5% FBS and allowed to adhere overnight prior to addition of test compound or vehicle control. Combinations were tested using either a 10×8 or for the follow-up HCT116 study a 3×1 dose matrix.
Test compounds were incubated with the cells for 72 h at 37° C., 5% CO2 in a humidified atmosphere. CellTiter-Glo® reagent (Promega, Madison, Wis.) was added according to manufacturer's instructions and luminescence detected using the BMG FLUOstar plate reader (BMG Labtech, Ortenberg, Germany). The average media only background value was deducted and the data analysed.
For the 10×8 combination assays the combination interactions across the dose matrix were determined by the Loewe Additivity and Bliss independence models using Chalice™ Combination Analysis Software (Horizon Discovery Group, Cambridge, Mass.) as outlined in the user manual (available at chalice.horizondiscovery.com/chalice-portal/documentation/analyzer/home.jsp). Synergy is determined by comparing the experimentally observed level of inhibition at each combination point with the value expected for additivity, which is derived from the single-agent responses along the edges of the matrix. […]

[6] = test system: HCT116 PIK3CA (+/−) cells; assay: Combination proliferation assay (Loewe/Bliss); format: cell-based, human; conditions: Homo sapiens, HCT-116, read-out: IC50 (single agent, derived from combination assay plates)
Experimental: Test compounds were incubated with the cells for 72 h at 37° C., 5% CO2 in a humidified atmosphere. CellTiter-Glo® reagent (Promega, Madison, Wis.) was added according to manufacturer's instructions and luminescence detected using the BMG FLUOstar plate reader (BMG Labtech, Ortenberg, Germany). The average media only background value was deducted and the data analysed. For the 10×8 combination assays the combination interactions across the dose matrix were determined by the Loewe Additivity and Bliss independence models using ChaliceTM Combination Analysis Software (Horizon Discovery Group, Cambridge, Mass.) as outlined in the user manual (available at chalice.horizondiscovery.com/chalice-portal/documentation/analyzer/home.jsp). Synergy is determined by comparing the experimentally observed level of inhibition at each combination point with the value expected for additivity, which is derived from the single-agent responses along the edges of the matrix. Potential synergistic interactions were identified by displaying the calculated excess inhibition over that predicted as being additive across the dose matrix as a heat map, and by reporting a quantitative 'Synergy Score' based on the Loewe model. The single agent data derived from the combination assay plates were presented as dose-response curves generated in GraphPad Prism (GraphPad Software, La Jolla, Calif.) (plotted using percentage viability relative to DMSO only treated controls). […] (Cbliss is the fractional inhibition that would be expected if the combination of the two drugs were exactly additive). Cbliss values were then subtracted from the experimentally observed fractional inhibition values to give an 'excess over Bliss' value which were plotted as heat maps±SD.

[7] = Homo sapiens, HCT-116, 72 h, 1% CS-FBS
[8] = Homo sapiens, HCT-116, 72 h, 10% FBS
[9] = Group 1 (vehicle) vs Group 10 (Paclitaxel 30 mg/kg iv qod x 5)
[10] = Group 10: Paclitaxel 30 mg/kg iv qod x 5

Row | Structure (SMILES) | IC50 [1, 7] | IC50 [1, 8] | IC50 [2, 7] | IC50 [2, 8] | further results
1 | Nc1cc(C(F)(F)F)c(-c2cc(N3CCOCC3)nc(N3CCOCC3)n2)cn1 [BKM120] | 0.53 µM | 0.62 µM | 1.03 µM | 0.52 µM | –
2 | CS(=O)(=O)N1CCN(Cc2cc3nc(-c4cccc5[nH]ncc45)nc(N4CCOCC4)c3s2)CC1 [GDC-0941, pictilisib] | 0.06 µM | 1.53 µM | – | – | –
3 | CC(C)n1nc(-c2ccc3oc(N)nc3c2)c2c(N)ncnc21 [INK128] | 0.03 µM | 0.05 µM | 0.02 µM | 0.07 µM | –
4 | COc1ccc(-c2cc3c(C)nc(N)nc3n([C@H]3CC[C@H](OCCO)CC3)c2=O)cn1 [PF-04691502] | – | – | – | – | IC50 ([1]; 1% CS-FBS): 0.07 µM; IC50 ([1]; 10% FBS): 0.29 µM; IC50 ([2]; 1% CS-FBS): 1.54 µM; IC50 ([2]; 10% FBS): 0.42 µM
5 | CC(=O)O[C@H]1C(=O)[C@@]2(C)[C@H]([C@H](OC(=O)c3ccccc3)[C@]3(O)C[C@H](OC(=O)[C@H](O)[C@@H](NC(=O)c4ccccc4)c4ccccc4)C(C)=C1C3(C)C)[C@]1(OC(C)=O)CO[C@@H]1C[C@@H]2O [Paclitaxel, reference compound] | 0.003 µM | 0.002 µM | 0.003 µM | 0.002 µM | Are survival curves diff.? [3, 9]: Yes; Logrank test Chi square [3, 9]: 24.03; % TGD [3, 10]: 38%; MTV (n): number of animals on D 45 (45-day survivors) [3, 10]: (10); MTV D 45 (median tumor volume) [3, 10]: 688 mm^3; Median TTE [3, 10]: 45.0 days; Regressions CR [3, 10]: 0; Regressions PR [3, 10]: 8/10 and 8; Regressions TFS [3, 10]: 0; T − C [3, 10]: 12.3 days; Deaths NTR [4]: 0; Deaths TR [4]: 0
6 | O=C(Nc1ccc2[nH]nc(-c3ccncc3)c2c1)[C@@H]1CCN(CC(=O)N2CCN(c3ccc(-c4ncccn4)cc3)CC2)C1 [SCH772984] | 0.03 µM | 0.14 µM | 0.01 µM | 0.08 µM | IC50 [5]: 0.21 µM; IC50 [6]: 0.03 µM
